Results on 81 molecules are retold here after PMC12040169 (PLOS Biology, 2025).

This data set is described as follows: in vitro. The following applies: human, hela cells, % viability.
What is called viability is a read-out of living cells in per cent, often relative to untreated cells. For `CCCn1cc(C(CC(=O)O)C(=O)O)c2ccccc21` (stereo not drawn) [CBK267345], the viability at 28.5 h, 10 µM was found to be 92.4%.
`CC(=O)N1CCN(C(=O)C(C)S(=O)(=O)c2ccccc2F)CC1` (stereo not drawn) [CBK305603]: the viability at 28.5 h, 10 µM came to 97.7%.
Turning to `CN(CC1CCCCC1)C(=O)c1cc2ccsc2[nH]1` [CBK304518], the viability at 28.5 h, 10 µM was 91.4%.
As for `O=C(NCc1ccc2c(c1)CCN2C(=O)c1ccncc1)c1cccnc1` [CBK288585], the viability at 28.5 h, 10 µM amounted to 91.4%.
With `FC(F)(F)c1ccc(SCc2cccs2)nc1` [CBK103711] the figure was 96.3%; with `Cn1c(SCC(=O)Nc2c(F)cc(F)cc2Br)nnc1-c1cnccn1` [CBK267584], 97.6%.
For the molecule `COCCc1noc(CC2CCN(c3cc(C)ncc3C#N)CC2)n1` [CBK304092], the viability at 28.5 h, 10 µM turned out to be 90.4%.
For `Cc1csc(C(Cc2ccsc2)NC(=O)CCn2cccn2)n1` (stereo not drawn) [CBK285149], the viability at 28.5 h, 10 µM is 93.7%.
For the molecule `O=C1CC(SCCc2nc3ccccc3[nH]2)C(=O)N1c1cccc(F)c1` (stereo not drawn) [CBK266671], the viability at 28.5 h, 10 µM was 94.6%.
On to `OC(CSc1ccccc1)CN1CCN(c2nc(-c3ccccc3)ns2)CC1` (stereo not drawn) [CBK074677C], for which the viability at 28.5 h, 10 µM came to 110%.
For the molecule `COCC(=O)N[C@H]1C[C@H]2C(=O)Nc3ccc(Br)cc3C(=O)N2C1` [CBK289357], the viability at 28.5 h, 10 µM turned out to be 97.6%.
For the molecule `CC1CCCN(C(=O)CC(NC(N)=O)c2cccc(Br)c2)CC1` (stereo not drawn) [CBK305804], the viability at 28.5 h, 10 µM is 91.7%.
Regarding `Cc1cccc(OCC(=O)NC(=S)Nc2ccccc2N2CCCCC2)c1C` [CBK266298], the viability at 28.5 h, 10 µM was 105%.
On to `O=C(NCc1ccccn1)c1ncoc1-c1ccc(F)cc1` [CBK282352], for which the viability at 28.5 h, 10 µM came to 79.6%.
Take `NCCNCCNCCN` [CBK023985C]: the viability at 28.5 h, 10 µM is 93.2%.
`O=C(CSc1nnc(-c2ccco2)o1)Nc1cccc2nsnc12` [CBK268006]: the viability at 28.5 h, 10 µM is 93.2%.
For the molecule `Cc1cc(C)c(OCC(=O)Nc2cc(-c3nc4ncccc4o3)ccc2C)c(Cl)c1` [CBK072887], the viability at 28.5 h, 10 µM was 92.7%.
With `CC(C)(C)c1ccc(-n2cc(-c3ccc(F)cc3)nn2)cc1` [CBK113112] the figure was 103%.
On to `Cc1ccc(-c2nc3ncccc3o2)cc1NC(=O)c1ccc(F)cc1` [CBK263043], for which the viability at 28.5 h, 10 µM worked out at 103%.
Take `O=C(N[C@H]1CCN2C(=O)c3cc(-c4ccccc4F)ccc3NC(=O)[C@H]12)c1cnccn1` [CBK289274]: the viability at 28.5 h, 10 µM turned out to be 84.7%.
For the molecule `Cn1nnnc1-c1cccc(NC(=O)c2ccc(Oc3ccccc3)cc2)c1` [CBK297872], the viability at 28.5 h, 10 µM was found to be 81.6%.
Turning to `O=C(CSc1ncccc1C(=O)O)Nc1ccc(Oc2ccccc2)cc1` [CBK266340], the viability at 28.5 h, 10 µM was found to be 106%.
For `CS(=O)(=O)c1ccc(-c2cccc(COC3CCN(C(=O)Cc4ccc(Cl)cc4)CC3)c2)cc1` [CBK149504], the viability at 28.5 h, 10 µM was 110%.
Turning to `CC1(C(C)(O)C(F)F)OC(NC2C3CC4CC(C3)CC2C4)=NC1=O` (stereo not drawn) [CBK137190], the viability at 28.5 h, 10 µM is 103%.
`O=C(CCn1cnc2ccccc2c1=O)Nc1cccc(C(F)(F)F)c1` [CBK267687]: the viability at 28.5 h, 10 µM is 91.5%.
As for `CN(C)C(=O)C1(c2ccccc2)CCNC1` (stereo not drawn) [CBK023394C], the figure is 114%; as for `Cc1ccc(Cl)cc1NC(=O)CCn1cnc2ccccc2c1=O` [CBK270103], 95.1%; as for `O=C(CNC1CCN(Cc2ccccc2)CC1)Nc1ccc(Cl)cc1C(=O)c1ccccc1Cl` [CBK074770], 107%.
As to `Cc1ccc(C(=O)NC(=O)CSc2nc(N)n[nH]2)cc1` [CBK267523], the viability at 28.5 h, 10 µM came to 90.9%.
On to `CC(=O)N1CCc2c([nH]c3ccc(Br)cc23)C12CCN(CCCC#N)CC2` [CBK039724], for which the viability at 28.5 h, 10 µM came to 83.2%.
For `Cc1nnc(SCc2cc(=O)[nH]c(N3CCN(Cc4ccccc4)CC3)n2)s1` [CBK268837], the viability at 28.5 h, 10 µM came to 104%.
On to `Cc1ccccc1NC(=O)NCc1ccccc1` [CBK105833], for which the viability at 28.5 h, 10 µM stood at 86.8%.
With `Cc1cc(N2CCOCC2)nc(N)n1` [CBK012710] the figure was 99.1%.
With `CCc1cc(Br)ccc1S(=O)(=O)NCc1cccc(F)c1` [CBK045114], the viability at 28.5 h, 10 µM is 89.1%.
Turning to `Cn1cncc1CN(CCc1ccccc1)Cc1ccncc1` [CBK282992], the viability at 28.5 h, 10 µM is 87.4%.
With `Cc1ccc(C(=O)O/N=C(\N)c2ccccn2)cc1` [CBK263265] the figure was 90.9%; with `CN(c1ccc(C(O)(C(F)(F)F)C(F)(F)F)cc1)S(=O)(=O)c1cccs1` [CBK067061], 107%.
On to `Nc1cccc(Oc2ccc(C(=O)O)c(C(=O)O)c2)c1` [CBK261180], for which the viability at 28.5 h, 10 µM amounted to 89.4%.
For `Cc1nc(C2CCCN(C(=O)c3ccnn3C)C2)c2sccn12` (stereo not drawn) [CBK285235], the viability at 28.5 h, 10 µM amounted to 87.2%.
For `FC(F)(F)c1ccncc1-n1cccc1` [CBK021909], the viability at 28.5 h, 10 µM is 85.9%.
Turning to `O=C(Nc1nc2nccc(-c3ccccc3)n2n1)c1cccc([N+](=O)[O-])c1` [CBK265414], the viability at 28.5 h, 10 µM turned out to be 87.6%.
Turning to `COc1ccc(C2(CN3CCC(NC(C)=O)CC3)CC2)cc1` [CBK285357], the viability at 28.5 h, 10 µM came to 101%.
As to `CCOC(=O)/C(C(=O)c1ccccc1)=C(/N)NCCO` [CBK265621], the viability at 28.5 h, 10 µM worked out at 110%.
As to `O=C(Nc1ccncc1)C1(c2ccccc2)CCCC1` [CBK287972], the viability at 28.5 h, 10 µM was determined as 111%.
Turning to `CC(C)c1ccc(OCC(=O)NNC(=O)c2ccco2)c(Br)c1` [CBK267224], the viability at 28.5 h, 10 µM came to 86.7%.
Take `O=C(O)c1cccc(-n2c(S)nnc2-c2cnccn2)c1` [CBK269252]: the viability at 28.5 h, 10 µM was found to be 104%.
As for `CCCCOc1ccccc1C1CC(=O)Nc2c(-c3ccccc3F)csc21` (stereo not drawn) [CBK294439], the figure is 81%; as for `Oc1ccc(/C=C/c2nc(-c3ccccc3O)n(-c3ccccc3)n2)cc1` [CBK265289], 74.4%.
As for `O=C(NCC1CCCO1)c1ccccc1Sc1ccc([N+](=O)[O-])cc1Cl` (stereo not drawn) [CBK266041], the viability at 28.5 h, 10 µM came out at 88.8%.
`CSc1nc(O)c(C(c2ccc(Cl)cc2)c2c(O)nc(SC)nc2O)c(O)n1` [CBK265306]: the viability at 28.5 h, 10 µM was determined as 105%.
In the case of `O=C(c1cccnc1)N1CCc2ccccc21` [CBK200279], the viability at 28.5 h, 10 µM was found to be 121%.
Turning to `COc1ccc(NC(=O)Nc2cc3cccnc3c(Br)n2)c(C)c1` [CBK063294], the viability at 28.5 h, 10 µM came out at 96.8%.
Take `CC1=CC(c2ccccc2)N2N=C(NC(=O)CCCC(=O)O)NC2=N1` (stereo not drawn) [CBK287037]: the viability at 28.5 h, 10 µM was determined as 81.1%.
With `Cc1cc(C(C)(C)C)cc(S(=O)(=O)Nc2ccc(O)c(C(=O)O)c2)c1C` [CBK266196] the figure was 101%; with `CC(C)Nc1nccnc1-c1ccc(CO)cc1` [CBK088519], 90.1%; with `Cn1nccc1C(=O)C1CCN(C(=O)c2cccs2)CC1` [CBK284424], 95.1%.
Turning to `COc1ccc2[nH]cc(CCNC(=O)Cc3ccsc3)c2c1` [CBK116205], the viability at 28.5 h, 10 µM was 91.3%.
With `N#C/C(=C\c1ccc2noc(-c3ccccc3)c2c1)c1nc(-c2cc3ccccc3oc2=O)cs1` [CBK267269], the viability at 28.5 h, 10 µM was found to be 90.2%.
Regarding `COc1cc(CN2CCCCC2CO)c([N+](=O)[O-])cc1OC` (stereo not drawn) [CBK261730], the viability at 28.5 h, 10 µM amounted to 85.1%.
For the molecule `COc1ccc([C@@]23CC[C@@H](NC(=O)Nc4ccc(C(C)(C)C)cc4)C[C@@H]2N(C)CC3)cc1OC` [CBK036469T], the viability at 28.5 h, 10 µM is 92%.
`CSc1ncc(C(=O)N2CCC(N3CCCC(CO)C3)CC2)c(=O)[nH]1` (stereo not drawn) [CBK307338]: the viability at 28.5 h, 10 µM came to 90.3%.
Take `COc1ccc(CNc2nc[nH]n2)c(OC)c1OC` [CBK288129]: the viability at 28.5 h, 10 µM turned out to be 103%.
Turning to `O=C(NCc1ccccn1)c1cc2cc(Cl)ccc2[nH]1` [CBK107265], the viability at 28.5 h, 10 µM came out at 88.2%.
In the case of `c1ccc2nc(N3CCCC3)c(Sc3nc[nH]n3)nc2c1` [CBK115265], the viability at 28.5 h, 10 µM was found to be 90.9%.
With `CC(C)(C)C1CCc2c(sc(NC(=O)CCC(=O)O)c2C(=O)Nc2ccccc2Cl)C1` (stereo not drawn) [CBK264146] the figure was 87.2%.
In the case of `CCCCC(c1cccnc1)N(C)C(=O)c1cc(CC)[nH]c(=O)c1` (stereo not drawn) [CBK307216], the viability at 28.5 h, 10 µM is 107%.
As to `O=C(NCc1c(Cl)cccc1Cl)N(Cc1cccnc1)Cc1ccc2c(c1)OCO2` [CBK159450], the viability at 28.5 h, 10 µM was found to be 96.8%.
For the molecule `COC(=O)[C@@H](C)NC(=O)[C@H]1CN(C(=O)Nc2ccccc2)CCN1C(=O)NC(C)C` [CBK289631], the viability at 28.5 h, 10 µM worked out at 113%.
With `O=C(Cc1c[nH]c2ccccc12)N1CCC2(CCN(C(=O)c3ccc4[nH]c(=O)[nH]c4c3)C2)C1` (stereo not drawn) [CBK131452] the figure was 90.8%; with `CCNC(=O)N1CC2(CCN(Cc3ccc(OC(F)(F)F)cc3)CC2)c2ccccc21` [CBK126688], 115%; with `COC(=O)c1ccccc1OC(=O)COc1ccc(Cl)cc1Br` [CBK268733], 83.7%.
For the molecule `O=C1c2cccc3cccc(c23)C(=O)N1CCCSc1nnc[nH]1` [CBK268894], the viability at 28.5 h, 10 µM amounted to 66.4%.
Consider `CN(C)CCNCCP(=O)(c1ccccc1)c1ccccc1` [CBK263049], for which the viability at 28.5 h, 10 µM amounted to 104%.
As for `O=C(CN1CCOCC1)Nc1ccc(S(=O)(=O)N2CCCC2)cc1` [CBK268468], the figure is 103%.
As to `COc1ccccc1/C=N/NC(=O)COc1c(Br)cc(Br)cc1Br` [CBK261966], the viability at 28.5 h, 10 µM was 95.2%.
As to `CCCN(C)Cc1ccc(-c2cn(CC(=O)NCc3ccc4c(c3)OC(F)(F)O4)nn2)cc1` [CBK166361], the viability at 28.5 h, 10 µM was determined as 101%.
As for `CCc1cc(C(=O)Nc2nn(C)c3cccc(N4CCOCC4)c23)cs1` [CBK307419], the figure is 110%.
As to `COc1ccc(OC)c(S(=O)(=O)N2CCC(C(=O)O)CC2)c1` [CBK266835], the viability at 28.5 h, 10 µM stood at 83.5%.
On to `COc1ccc(-c2cc(C(=O)Nc3nccs3)cnc2-c2ccc(Cl)cc2)cc1` [CBK037553], for which the viability at 28.5 h, 10 µM turned out to be 87.4%.
With `Nc1nnc(Sc2nc3ccccc3nc2N2CCCC2)s1` [CBK093750] the figure was 88.4%; with `O=[N+]([O-])c1ccn(C2CC(O)C(CO)O2)c1` (stereo not drawn) [CBK201229], 83.7%.
